Data from paper PMC12566046, “Arylpiperazinyl-Benzocycloheptapyrrole-Carboxamides Endowed with Dual Anticancer and Antiviral Activities” (Molecules, 2025).

Experiments:
[1] = test system: OVCAR-4 (ovarian cancer cell line); assay: NCI-60 single-dose assay; assay type: cell-based, human
In short: (§1)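 NCI-60 one-dose format: each compound is tested at a single dose against human tumour lines for cytotoxic effect.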

[2] = test system: PC-3 (prostate cancer cell line); assay: NCI-60 single-dose assay; assay type: cell-based, human
In short: as §1

[3] = test system: NCI-H460 (non-small cell lung cancer); assay: NCI-60 five-dose assay; assay type: cell-based; details: Homo sapiens, five-dose screen
[4] = test system: CAKI-1 (renal cancer cell line); assay: NCI-60 five-dose assay; assay type: cell-based; details: Homo sapiens, five-dose screen
SF-295 (CNS cancer) = assay: NCI-60 five-dose assay; assay type: cell-based; details: Homo sapiens, five-dose screen
Vero TMPRSS cells = details: read-out: SARS‐CoV‐2/Vero TMPRSS CC50; preliminary screening (50, 5, 0.5 μM), Vero TMPRSS
MDCK cells = assay: Cytotoxicity on uninfected MDCK cells (WST-8, crystal violet); details: read-out: IAV/MDCK CC50; preliminary screening (50, 5, 0.5 μM), MDCK
Huh-7 cells = assay: Cytotoxicity on uninfected Huh-7 cells (WST-8, crystal violet); details: read-out: ZIKV/Huh‐7 CC50; preliminary screening (50, 5, 0.5 μM), Huh-7

For `COc1ccccc1N1CCN(CCNC(=O)c2c(Cl)[nH]c3c2CCCc2ccccc2-3)CC1` [Compound 15], the “growth inhibition (GI%)” value [1] was 66.06% and the “growth inhibition (GI%)” value [2] was 75.11%.

In the case of `CCN1CCC[C@H]1CNC(=O)c1[nH]c2c(c1Cl)CCCc1ccccc1-2` [Compound 1, (S)-3-Chloro-N-(1-ethyl-2-pyrrolidinylmethyl)-5,6-dihydro-4H-benzo[6,7]cyclohepta[1,2-b]pyrrol-2-carboxamide], the GI50 [3] is reported as 2.03 µM, the GI50 [4] is reported as 2.29 µM and the GI50 (SF-295 (CNS cancer)) is reported as 1.89 µM.

Work on “N-(3-(4-Benzylpiperazin-1-yl)propyl)-2-chloro-1,4,5,6-tetrahydrobenzo[6,7]cyclohepta[1,2-b]pyrrole-2-carboxamide [Compound 11]” yielded a CC50 (Vero TMPRSS cells) of 15.4 µM, a CC50 (MDCK cells) of 5.38 µM and a CC50 (Huh-7 cells) of 4.89 µM.
